Assay in all cases: inhibition of tumour cell growth, NCI panel, 48 h
In assay [1] the test system is OVCAR-4 ovarian.
Assay [2] concerns HOP-62 NSCLC.
The subject of assay [3] is HCT-15 colon.
The subject of assay [4] is CCRF-CEM leukemia.
The test system of assay [5] is SK-MEL-5 melanoma.
The subject of assay [6] is EKVX NSCLC.
Assay [7] relates to IGROV1 ovarian.
Assay [8] concerns PC-3 prostate.
The subject of assay [9] is OVCAR-8 ovarian.
Assay [10] concerns SK-MEL-28 melanoma.

Where “and” joins values, the source holds several entries; their conditions need not be identical. Equal values may be shown once.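 Method: 48-hour compound exposure of cells in 96-well plates, five concentrations, linear interpolation of endpoints. GI50: concentration for 50% inhibition of growth. At the TGI there is no net growth.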 Bounds are passed on as bounds.

Take `CC/C=C\C[C@H]1C/C=C2/C(=O)C=C[C@H]2C/C=C\CCCC(=O)O1`: the GI50 in assay [1] was 2.81 µM; in assay [2], 2.09 µM; in assay [3], 1.5 µM; in [4], 1.67 µM; in assay [5], 1.74 µM; in [6], 4.89 µM. In addition, the GI50 is 2.66 µM in assay [7], 3.13 µM in assay [8], 2 µM in assay [9] and 3.1 µM in assay [10]. Moreover, the TGI in [1] stood at 9.73 µM; in assay [2] it was 7.72 µM; in assay [3], 7.04 µM; in [4], 15.3 µM; in assay [5], 7.27 µM; in assay [6] it was 15.7 µM. Moreover, the TGI in [7] turned out to be 8.99 µM; in assay [8], 12.1 µM; in assay [9], 11.7 µM; in [10], 11.4 µM.

For `C=C1CCC2CC1C(C(=O)c1c[nH]c3ccccc13)=NC2(C)C` (centres undefined), the TGI in [1], in [2], in [3], in assay [4], in assay [5] and in assay [6] was above 100 µM throughout. For the same compound, the TGI in assay [7], in assay [8], in assay [9] and in [10] was above 100 µM each time.

With `O=C(O)C1C2C=CC(O2)C1C(=O)NCc1cccnc1` (centres undefined), the TGI in assay [1], in assay [2], in assay [3], in assay [4], in assay [5] and in assay [6] was above 100 µM in each case. The TGI in assay [7], in [8], in assay [9] and in [10] was above 100 µM throughout.

With `COc1ccc(C(=O)/C=C/c2sc(Cl)nc2Cl)cc1`, the GI50 in [1] is 7.28 µM; in assay [2], 4.59 µM; in assay [3] it was 0.416 µM; in assay [4], 0.267 µM; in assay [5] it was 1.53 µM; in assay [6], 3.67 µM. Besides, the GI50 in [7] is 0.368 µM; in [8] it was 2.83 µM; in assay [9], 1.05 µM; in assay [10], 2.57 µM. Further, the TGI in assay [1] amounted to 20.2 µM; in assay [2], 21.2 µM; in assay [3] it was 2.14 µM; in assay [4], 14.7 µM; in assay [5], 4.15 µM; in assay [6], 14.8 µM. In addition, the TGI turned out to be 1.91 µM in assay [7], 11.6 µM in assay [8], 13.9 µM in assay [9] and 8.17 µM in assay [10].

Regarding `N#C/C(=C\c1ccc(O)c(O)c1)C(=O)NCc1ccc(C(F)(F)F)cc1`, the GI50 in [1] is 13.3 µM; in assay [2], 9.48 µM; in [3] it was 4.05 µM; in [4], 2.14 µM; in assay [5] it was 8.09 µM; in [6] it was 19.7 µM. Also, the GI50 in [7] is 2.4 µM; in assay [8], 30.1 µM; in assay [9] it was 10.1 µM; in assay [10] it was 16.9 µM. The TGI was above 71.9 µM in assay [1]; 26.9 µM in assay [2]; 41.1 µM in assay [3]; 14.7 µM in [4]; 24.4 µM in assay [5]; above 61.8 µM in assay [6]. The TGI is 14.4 µM in [7], above 100 µM in [8], above 49.7 µM in assay [9] and 57 µM in [10].

Take `Cc1cc(=O)oc2c(C3=NN(C=O)C(c4ccccc4)C3)c(O)ccc12` (centres undefined): the TGI in assay [1] is above 100 µM; in [2], 91.4 µM; in [3], above 100 µM; in assay [4] it was above 100 µM; in assay [5], above 100 µM; in assay [6] it was above 100 µM. Moreover, the TGI in [7], in [8], in [9] and in assay [10] was above 100 µM throughout.

Turning to `N#Cc1ncc(C(Cl)Cl)nc1Cl`, the TGI in assay [1] was 3.31 µM; in [2], above 8.07 µM; in [3] it was 3.87 µM; in [4], above 6.15 µM; in [5], 3.35 µM; in assay [6], 3.27 µM. Also, the TGI in assay [7] is 5.3 µM; in assay [8], 3.62 µM; in assay [9] it was 5.16 µM; in [10] it was 4.2 µM.

Take `O=CC(OC(=O)c1ccccc1)C(OC(=O)c1ccccc1)C(COC(c1ccccc1)(c1ccccc1)c1ccccc1)OC(=O)c1ccccc1` (centres undefined): the GI50 in assay [1] was 17.5 µM; in [2] it was 18.3 µM; in assay [3] it was 16.6 µM; in assay [4], 2.21 µM; in assay [5] it was 15.4 µM; in assay [6], 19.6 µM. Also, the GI50 in [7] is 12.4 µM; in assay [8], 9.64 µM; in [9] it was 4.76 µM; in assay [10] it was 13.5 µM. The TGI was found to be 47.1 µM in [1]; 32.6 µM in [2]; 43.1 µM in assay [3]; 7.26 µM in [4]; 30.3 µM in [5]; 61.5 µM in [6]. Also, the TGI came out at 37.7 µM in assay [7], 24.7 µM in [8], 54.1 µM in assay [9] and 28.3 µM in assay [10].

Turning to `COc1cc2c(Oc3ccc(NC(=O)C4(C(=O)Nc5ccc(F)cc5)CC4)cc3F)ccnc2cc1OCCCN1CCOCC1`, the GI50 is 0.747 µM and 2.56 µM in assay [1]; 0.798 µM and 0.573 µM in assay [2]; 0.935 µM and 1.03 µM in assay [3]; 0.531 µM and 0.383 µM in assay [4]; 1.37 µM and 1.39 µM in [5]; 1.16 µM and 1.93 µM in [6]. The GI50 in assay [7] was 1.31 µM and 0.645 µM; in [8], 1.9 µM and 1.23 µM; in [9], 1.42 µM and 2.08 µM; in [10] it was 1.12 µM and 1.25 µM. In addition, the TGI in assay [1] is 13.2 µM and > 10 µM; in assay [2], 2.17 µM and 4.15 µM; in [3], 3.8 µM and 4.04 µM; in assay [5], 2.68 µM and 2.71 µM; in assay [6], 4.73 µM and > 10 µM; in assay [7], 8.49 µM and 2.74 µM. The TGI is 14.5 µM and > 10 µM in assay [8]; 4 µM and > 10 µM in assay [9]; 2.47 µM and 2.69 µM in assay [10].

On to `Cc1nnc(C[C@@H]2C=C(c3ccc(Cl)cc3)c3ccccc3-n3c(C)nnc32)o1`, for which the GI50 in assay [1] was 1.29 µM; in assay [2], 0.318 µM; in assay [3], 0.461 µM; in [4], 8.6 µM; in [5], 1.81 µM; in [6], 6.01 µM. The GI50 in [7] was 2.3 µM; in [8] it was 3.53 µM; in [9], 2.94 µM; in [10], 2.24 µM. Also, the TGI in [1] is above 100 µM; in assay [2] it was above 90.4 µM; in assay [3], 40.2 µM; in assay [4] it was above 94.1 µM; in [5] it was 19.7 µM; in assay [6] it was above 100 µM. Also, the TGI is above 100 µM in [7], above 100 µM in assay [8], above 67.4 µM in assay [9] and above 100 µM in [10].

For the origin of these results see PubChem BioAssay (NCI).
